Laboratory results from publication PMC6533572, “Elucidation of the Differences in Cinobufotalin’s Pharmacokinetics Between Normal and Diethylnitrosamine-Injured Rats: The Role of P-Glycoprotein” (Frontiers in Pharmacology, 2019).
Like-named read-outs stand apart in the source and are kept apart here.

Tests used:
[1] = Liver distribution of cinobufotalin in normal and DEN-injured rats; format: in vivo; conditions: male, Sprague Dawley, rat, iv, 2.5 mg/kg, i.v. 2.5 mg/kg, after the last sampling time point (24 h), read-out: concentration of cinobufotalin in liver tissues
Procedure: For PK studies, the rats were randomly divided into two experimental groups (10 rats for normal rats group and 20 rats for DEN-injured rats group, considering the animal casualties during the modeling process). HCC rat model was established by intraperitoneal administration of 50 mg/kg DEN two times per week ([Fuchs et al., 2014]), and the control group rats were treated with normal saline in the same way. After 14 weeks of administration, three rats were randomly selected and anesthetized by anesthesia cocktail (Ketamine 50 mg/mL, Xylazine 3.3 mg/mL and Acetopromazine 3.3 mg/mL). Then the liver was taken out and photographed to determine whether the animal model was successfully constructed.
Before PK experiment, a cannula was introduced into the jugular vein of the anesthetized rat and administrated carprofen subcutaneously after the surgery. After observation for 24 h, when the activity and excretion of rats were normal, rats were dosed with cinobufotalin at 2.5 mg/kg through jugular vein cannula. Blood samples (200 μL) were withdrawn at each pointed time (5, 10, 15, 30, 45 min, and 1, 1.5, 2, 4, 6, 8, 12, and 24 h) after dosing, and whole blood was transferred into tubes pre-treated with heparin (1000 U/mL). Then an equal volume of saline was injected into rats through jugular vein cannula immediately. […]

[2] = test system: MDCK II cells; assay: Cellular uptake (intracellular accumulation) in MDCK II cells; format: in vitro ADME, canine; conditions: verapamil 100 μM, 2 h
Procedure: Madin Darby canine kidney (MDCK II) cells stably transfected with multidrug resistance 1 gene (MDCK-MDR1 cells) were conducted and used in cinobufotalin uptake studies. Wild type MDCK II or MDCK-MDR1 cells were seeded into six-well plates at the destiny of 2 × 10^5 cells/well and maintained at 37°C under 5% CO2 in DMEM with 10% FBS. The well-known P-gp inhibitor, verapamil (100 μM), was used as the positive control to evaluate the effect of P-gp on cinobufotalin uptake ([Bicker et al., 2017]).
The uptake experiment was performed when the cells reached 100% confluency. First, cells were washed three times using 37°C Hanks’ balanced salt solution (HBSS) buffer (pH = 7.2). Then, 2 mL HBSS (37°C, pH = 7.2) buffer containing cinobufotalin (5 and 20 μM) were added and incubated with cells in the absence or presence of potential P-gp inhibitors, verapamil (100 μM). After incubation for 2 h, the incubation medium was removed, and cells were washed three times using ice-cold HBSS buffer. Then 400 μL of ice-cold MeOH:H2O (1:1, v/v) were added into each well, the cells were collected and sonicated for 15 min in ice-cold water. The mixture was centrifuged at 4°C (12,000 g, 10 min), and the supernatant was subjected to UPLC-QTOF/MS for analyses.

[3] = test system: HepG2 cells; assay: Wound healing assay, HepG2 cells; format: cell-based; conditions: 40, 60 and 80 nM, 24 h
Procedure: (§1) Hepatocellular cancer cells (HepG2 and Huh-7) were purchased from the cell bank of the Chinese Academy of Science (Shanghai, China). These cells were cultured in Dulbecco’s modified Eagle’s medium (DMEM) containing 10% fetal bovine serum (FBS), penicillin (100 units/mL) and streptomycin (100 units/mL) in a humidified atmosphere with 5% CO2 at 37 °C.
Wound healing assay was used to investigate the effect of cinobufotalin on the migration of HepG2 and Huh-7 cells. Cells were seeded into 6-well plates at the density of 4 × 10^5 cells/well and maintained until reaching monolayer confluence. The cells were scratched using 20-μL pipette tips and rinsed with PBS buffer for three times. And then the cells were cultured in serum-free medium containing different concentrations of cinobufotalin (40, 60, 80 nM). After treatment with cinobufotalin for different lengths of time (0 and 24 h), the width of wound was measured and the images of cells were acquired using inverted microscope (Leica, Wetzlar, German). The rate of wound healing = [(the wound width of 0 h - 24 h)/0 h wound width] × 100%. All experiments were performed in triplicate.

[4] = test system: HepG2 cells; assay: Cell viability CCK-8 assay, HepG2 cells; format: cell-based; conditions: Homo sapiens, 40 nM, 60 nM and 80 nM, 24 h, read-out: inhibition of HepG2 cells growth (CCK-8)
Procedure: as §1
Furthermore, the effect of cinobufotalin at 40, 60, 80 nM on hepatocellular cancer cells (HepG2 and Huh-7 cells) viability was conducted using Cell Counting Kit - 8 (CCK-8) assay (Sigma-Aldrich, St Louis, MO). In brief, cells were seeded into 96-well plates at 5 × 10^3 cells/well and cultured for 24 h in DMEM medium as described in 1.1 section. Then various concentrations of cinobufotalin (40, 60, 80 nM) were added into cells. After 24 h treatment, 10 μL of CCK-8 solution was added into every well of the plate. The plate was incubated in the incubator for other 4 h, and then the absorbance was measured at 450 nm using a microplate reader (Thermo Scientific, Rockford, IL). The cell viability was calculated by the formula: cell viability (100%) = (OD value of the treated wells - OD value of the blank control wells) / (OD value of the negative control wells - OD value of the blank control wells).

SMILES: CC(=O)O[C@H]1[C@H]2O[C@]23[C@@H]2CC[C@]4(O)C[C@@H](O)CC[C@]4(C)[C@H]2CC[C@]3(C)[C@H]1c1ccc(=O)oc1 [Cinobufotalin]
- concentration at 24 h ([1]; DEN-injured rats): 21 ± 2.7 ng/mL
- concentration at 24 h ([1]; normal rats): 39.3 ± 4.9 ng/mL
- effect of verapamil on the intracellular accumulation of cinobufotalin [2]: did not alter
- migration of HepG2 cells (wound healing) [3]: significantly attenuated
- inhibition at 0.04 µM [4]: < 15%
